Holding throughout (conditions): 1 μM; Run 1, Run 2
In experiment [1] the target is T1, TLK1 (Homo sapiens, UniProt Q9UKI8).
T1 sequence (Q9UKI8 1-766): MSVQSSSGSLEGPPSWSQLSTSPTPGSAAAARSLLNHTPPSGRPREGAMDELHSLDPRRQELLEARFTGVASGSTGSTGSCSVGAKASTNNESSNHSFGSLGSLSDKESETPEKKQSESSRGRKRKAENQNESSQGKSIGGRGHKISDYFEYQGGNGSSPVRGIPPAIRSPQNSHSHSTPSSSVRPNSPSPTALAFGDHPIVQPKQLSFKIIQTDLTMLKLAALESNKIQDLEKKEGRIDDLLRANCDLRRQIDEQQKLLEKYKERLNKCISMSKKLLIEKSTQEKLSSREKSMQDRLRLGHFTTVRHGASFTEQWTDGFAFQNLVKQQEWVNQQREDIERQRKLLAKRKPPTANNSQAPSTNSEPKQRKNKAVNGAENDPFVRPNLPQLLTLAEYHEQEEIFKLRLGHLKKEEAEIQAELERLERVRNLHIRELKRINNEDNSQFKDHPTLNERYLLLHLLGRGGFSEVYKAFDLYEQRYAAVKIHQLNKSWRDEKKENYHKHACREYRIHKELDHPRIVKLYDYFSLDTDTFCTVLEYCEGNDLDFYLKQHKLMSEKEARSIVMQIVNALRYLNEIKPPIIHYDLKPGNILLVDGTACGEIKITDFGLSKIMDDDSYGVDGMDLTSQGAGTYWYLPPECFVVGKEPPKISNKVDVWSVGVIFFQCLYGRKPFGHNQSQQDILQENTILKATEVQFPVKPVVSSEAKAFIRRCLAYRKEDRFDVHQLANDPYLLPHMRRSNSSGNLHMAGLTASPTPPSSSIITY

For experiment [2], the target named is T2, IKKa/CHUK (Homo sapiens, UniProt O15111).
T2 sequence (O15111 1-745): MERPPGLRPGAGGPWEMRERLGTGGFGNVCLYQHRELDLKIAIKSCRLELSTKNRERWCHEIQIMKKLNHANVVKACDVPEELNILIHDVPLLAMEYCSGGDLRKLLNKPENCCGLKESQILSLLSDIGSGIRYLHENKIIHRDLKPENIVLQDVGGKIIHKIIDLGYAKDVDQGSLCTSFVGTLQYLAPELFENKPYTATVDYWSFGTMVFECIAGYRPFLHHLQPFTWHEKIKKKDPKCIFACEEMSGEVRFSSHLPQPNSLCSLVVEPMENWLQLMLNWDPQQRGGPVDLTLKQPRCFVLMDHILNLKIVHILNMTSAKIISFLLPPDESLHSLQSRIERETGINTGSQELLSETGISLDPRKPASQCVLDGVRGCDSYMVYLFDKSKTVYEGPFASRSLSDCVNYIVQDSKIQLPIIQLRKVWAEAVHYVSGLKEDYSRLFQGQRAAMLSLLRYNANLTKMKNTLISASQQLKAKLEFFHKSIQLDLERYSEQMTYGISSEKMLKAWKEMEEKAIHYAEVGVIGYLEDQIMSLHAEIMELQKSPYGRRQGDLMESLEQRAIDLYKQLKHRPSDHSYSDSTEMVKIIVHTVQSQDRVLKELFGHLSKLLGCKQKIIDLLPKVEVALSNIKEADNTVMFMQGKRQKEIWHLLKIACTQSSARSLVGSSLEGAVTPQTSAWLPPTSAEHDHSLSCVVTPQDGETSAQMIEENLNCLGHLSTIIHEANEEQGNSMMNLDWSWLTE

In experiment [3] the target is TIE2/TEK (Homo sapiens, UniProt Q02763).
The target in experiment [4] is T3, LATS2 (Homo sapiens, UniProt Q9NRM7).
T3 sequence (Q9NRM7 1-1088): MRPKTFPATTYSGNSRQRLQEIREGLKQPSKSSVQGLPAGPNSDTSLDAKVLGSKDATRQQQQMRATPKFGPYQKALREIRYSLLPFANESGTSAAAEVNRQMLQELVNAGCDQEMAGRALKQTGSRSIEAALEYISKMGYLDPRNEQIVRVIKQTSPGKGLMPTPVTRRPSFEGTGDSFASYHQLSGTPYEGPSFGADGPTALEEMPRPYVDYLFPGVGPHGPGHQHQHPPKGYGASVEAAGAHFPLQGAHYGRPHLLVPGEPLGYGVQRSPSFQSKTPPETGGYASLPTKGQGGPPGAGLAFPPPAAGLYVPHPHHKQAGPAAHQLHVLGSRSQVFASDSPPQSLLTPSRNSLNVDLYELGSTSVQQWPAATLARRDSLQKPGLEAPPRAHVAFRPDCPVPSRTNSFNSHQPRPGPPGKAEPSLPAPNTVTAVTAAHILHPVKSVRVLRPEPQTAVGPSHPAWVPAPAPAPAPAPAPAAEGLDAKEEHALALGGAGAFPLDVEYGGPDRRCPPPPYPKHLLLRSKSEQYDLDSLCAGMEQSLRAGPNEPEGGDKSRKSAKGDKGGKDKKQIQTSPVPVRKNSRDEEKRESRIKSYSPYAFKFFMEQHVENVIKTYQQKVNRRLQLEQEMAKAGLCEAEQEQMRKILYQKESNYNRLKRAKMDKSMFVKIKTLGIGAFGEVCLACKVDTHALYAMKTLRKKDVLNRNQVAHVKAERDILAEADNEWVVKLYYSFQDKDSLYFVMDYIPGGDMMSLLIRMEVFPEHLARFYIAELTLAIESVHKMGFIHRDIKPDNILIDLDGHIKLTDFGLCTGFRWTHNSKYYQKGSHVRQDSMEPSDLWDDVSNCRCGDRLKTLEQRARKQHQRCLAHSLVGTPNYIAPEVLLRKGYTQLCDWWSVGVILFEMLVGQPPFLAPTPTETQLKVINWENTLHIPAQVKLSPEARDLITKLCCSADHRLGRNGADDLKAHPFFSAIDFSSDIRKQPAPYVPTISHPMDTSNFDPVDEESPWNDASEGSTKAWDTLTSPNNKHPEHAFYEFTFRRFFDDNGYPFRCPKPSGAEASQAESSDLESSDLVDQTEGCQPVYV

Chain of TIE2/TEK (Q02763 23-1124): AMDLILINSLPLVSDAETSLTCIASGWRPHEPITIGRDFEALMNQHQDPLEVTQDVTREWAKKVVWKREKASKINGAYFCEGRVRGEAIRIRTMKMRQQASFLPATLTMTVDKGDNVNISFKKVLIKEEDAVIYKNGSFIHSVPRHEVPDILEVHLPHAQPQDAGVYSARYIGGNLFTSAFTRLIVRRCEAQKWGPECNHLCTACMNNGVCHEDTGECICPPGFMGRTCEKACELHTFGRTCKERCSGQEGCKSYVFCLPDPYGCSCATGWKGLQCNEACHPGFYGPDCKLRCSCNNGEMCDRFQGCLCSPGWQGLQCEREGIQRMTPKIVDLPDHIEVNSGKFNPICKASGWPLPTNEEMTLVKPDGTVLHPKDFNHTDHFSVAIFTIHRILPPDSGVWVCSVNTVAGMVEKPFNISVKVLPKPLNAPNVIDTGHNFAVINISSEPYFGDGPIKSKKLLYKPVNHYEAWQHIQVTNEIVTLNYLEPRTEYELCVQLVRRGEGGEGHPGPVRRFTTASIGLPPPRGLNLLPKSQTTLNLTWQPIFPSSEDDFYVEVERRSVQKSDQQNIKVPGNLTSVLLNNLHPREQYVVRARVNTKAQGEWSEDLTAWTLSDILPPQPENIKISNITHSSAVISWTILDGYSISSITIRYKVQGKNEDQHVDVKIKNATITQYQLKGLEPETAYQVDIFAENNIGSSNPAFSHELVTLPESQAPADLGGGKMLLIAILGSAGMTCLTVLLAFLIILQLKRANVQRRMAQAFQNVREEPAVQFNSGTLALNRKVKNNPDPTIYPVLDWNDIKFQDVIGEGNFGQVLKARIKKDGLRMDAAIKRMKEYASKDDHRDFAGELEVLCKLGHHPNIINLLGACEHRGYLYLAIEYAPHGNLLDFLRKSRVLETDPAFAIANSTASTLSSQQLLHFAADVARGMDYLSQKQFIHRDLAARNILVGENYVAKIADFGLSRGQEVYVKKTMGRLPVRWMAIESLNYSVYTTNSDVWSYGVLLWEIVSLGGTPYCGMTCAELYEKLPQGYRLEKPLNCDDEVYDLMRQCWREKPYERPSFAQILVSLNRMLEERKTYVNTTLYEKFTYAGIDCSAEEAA

As to `COc1cc(-c2cncc(-c3ccc(N4CCN(C)CC4)cc3)c2C)cc(F)c1C(N)=O` [Compound 26a, 2-Fluoro-6-methoxy-4-(4-methyl-5-(4-(4-methylpiperazin-1-yl)phenyl)pyridin-3-yl)benzamide], the “% enzyme activity” value in experiment [1] is reported as 107.91%; in experiment [2], 82.74%; in experiment [3], 92.85%; in experiment [4] it was 104.67%.

Take `COc1cc(-c2cncc(-c3ccc(N4C[C@@H](C)N(C)[C@@H](C)C4)cc3)c2C)cc(F)c1C(N)=O` [Compound 26c, 2-Fluoro-6-methoxy-4-(4-methyl-5-(4-((3R,5S)-3,4,5-trimethylpiperazin-1-yl)phenyl)pyridin-3-yl)benzamide]: the “% enzyme activity” value in experiment [1] amounted to 100.84%; in experiment [2], 85.96%; in experiment [3] it was 92.15%; in experiment [4] it was 100.36%.

For the origin of these results see paper PMC8213057, “Targeting ALK2: An Open Science Approach to Developing Therapeutics for the Treatment of Diffuse Intrinsic Pontine Glioma” (Journal of Medicinal Chemistry, 2020).
